“Also recorded” adds a separate entry of the source. Where two headings read alike, the source gives them in different places.
Experiments:
AC2 [1] = biological target: AC2 (UniProt P26769); assay: Inhibition of recombinant AC2 (baculovirus overexpression system); conditions: for IC50: read-out: IC50 AC2, recombinant AC proteins, Table 1; for inhibition of AC2: in the presence of Gs-α/GTPαS/forskolin
Source text: (§2) Several drugs with the adenine-like structure for AC5 inhibitors were screened using recombinant proteins of several AC subtypes with a baculovirus overexpression system.

[2] = system: cultured cardiac myocytes; assay: ISO-induced apoptosis and contraction in cultured cardiac myocytes; format: cell-based
AC3 = biological target: T1, AC3 (Rattus norvegicus, UniProt P21932); assay: Inhibition of recombinant AC3 (baculovirus overexpression system); format: biochemical; conditions: for inhibition of AC3: in the presence of Gs-α/GTPαS/forskolin
T1 construct: made in house; host or cells: insect cells (baculovirus)
T1 sequence (P21932 1-1144): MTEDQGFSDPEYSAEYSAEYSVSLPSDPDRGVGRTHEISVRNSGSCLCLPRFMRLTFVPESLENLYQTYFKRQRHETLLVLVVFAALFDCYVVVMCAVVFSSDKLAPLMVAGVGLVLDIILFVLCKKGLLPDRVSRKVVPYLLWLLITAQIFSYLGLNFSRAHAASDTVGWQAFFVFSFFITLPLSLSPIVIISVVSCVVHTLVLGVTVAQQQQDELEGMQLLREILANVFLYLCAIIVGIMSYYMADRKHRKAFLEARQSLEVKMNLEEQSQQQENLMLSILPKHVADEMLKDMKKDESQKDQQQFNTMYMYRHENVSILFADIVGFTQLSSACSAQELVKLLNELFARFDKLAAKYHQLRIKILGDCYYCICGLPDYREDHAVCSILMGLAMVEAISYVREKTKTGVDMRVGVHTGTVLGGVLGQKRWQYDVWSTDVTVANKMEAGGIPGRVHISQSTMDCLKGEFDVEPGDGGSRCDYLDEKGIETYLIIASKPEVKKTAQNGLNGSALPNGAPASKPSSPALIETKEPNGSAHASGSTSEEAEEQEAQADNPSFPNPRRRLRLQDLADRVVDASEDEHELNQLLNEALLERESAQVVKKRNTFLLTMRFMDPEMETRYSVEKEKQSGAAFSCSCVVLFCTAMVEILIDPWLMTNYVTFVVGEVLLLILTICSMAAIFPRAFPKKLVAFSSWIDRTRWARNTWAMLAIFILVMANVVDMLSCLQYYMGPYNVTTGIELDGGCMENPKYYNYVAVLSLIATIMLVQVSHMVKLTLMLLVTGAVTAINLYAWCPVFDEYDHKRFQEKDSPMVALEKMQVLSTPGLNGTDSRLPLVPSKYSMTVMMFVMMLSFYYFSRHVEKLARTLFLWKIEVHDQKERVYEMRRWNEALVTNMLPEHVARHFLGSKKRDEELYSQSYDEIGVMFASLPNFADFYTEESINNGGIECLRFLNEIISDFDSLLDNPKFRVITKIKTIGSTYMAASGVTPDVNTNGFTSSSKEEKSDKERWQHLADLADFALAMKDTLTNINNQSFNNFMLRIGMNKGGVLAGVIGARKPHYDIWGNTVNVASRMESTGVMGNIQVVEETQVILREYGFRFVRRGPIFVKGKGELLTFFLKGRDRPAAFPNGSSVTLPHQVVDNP
Source text: as §2

AC5 [3] = biological target: AC5 (UniProt P30803); assay: Inhibition of recombinant AC5 (baculovirus overexpression system); format: biochemical; set-up: IC50 AC5
Source text: as §2

AC5 [4] = assay: as above; format: biochemical; conditions: for Selectivity ratio for AC5, AC5/AC2: ratio of IC50 for AC5 to that for AC2; for Selectivity ratio for AC5, AC5/AC3: ratio of IC50 for AC5 to that for AC3
Source text: as §2

cardiac myocytes [5] = assay: ISO-induced cAMP accumulation in cardiac myocytes; format: cell-based, mouse
Source text: Decreases in cAMP in AC5 KO were observed only at high ISO concentrations. […] (Toya et al., J Mol Cell Cardiol., 1998; 30(1):97-108)

AC5 [6] = assay: Forskolin-stimulated 32P-cAMP production in heart membranes from AC5 Tg mice; format: biochemical, mouse; set-up: dose or concentration left out as unconfirmed; conditions: n=4
Protocol: To measure AC5 inhibition, in addition to membrane preparations from mouse heart, membrane preparations from mouse striatum were used because AC5 provides about 80% of total AC activity in the striatum, mimicking purified AC5. cAMP was measured with 50 mM forskolin (FSK) in the presence or absence of 10 mM of the indicated drugs).

AC6 = assay: Forskolin-stimulated 32P-cAMP production in heart membranes from AC6 Tg mice; format: biochemical, mouse; conditions: forskolin 50 mM, n=4
Protocol: (§1) Hearts were dissected from the mice and membrane preparations were prepared as described previously. Protein concentration was measured by the method of Bradford using bovine serum albumin as a standard. AC activity was measured as described previously. AC activity was linear within the incubation time up to 30 min. In order to harvest hearts for tissue cAMP content measurements, mice were allowed to acclimate to the surroundings in the laboratory for an hour before sacrifice. Freshly isolated hearts were briefly immersed in liquid nitrogen. The tissue was homogenized in ice-cold 6% percholic acid, and cAMP was extracted as described before. The concentration of cAMP was determined with an RIA kit (PerkinElmer Life Sciences, Boston, Mass., USA).

[7] = system: C57Bl/6 mice with chronic ISO infusion; assay: Chronic ISO infusion model; format: in vivo, mouse
Source text: Mice were then subjected to echocardiography (LVEF) (A); and tissue was harvested for pathological examination of myocardial apoptosis (by TUNEL) (B); and fibrosis (by PASR) (C). n=4-9.*p<0.05 vs. all other groups. […] Thus, this AC5 inhibitor is protective against the development of ISO-induced cardiomyopathy.

myocardial infarction = assay: Survival after myocardial infarction; conditions: in vivo
[8] = Tolerability of subcutaneous mini-osmotic pump infusion; format: in vivo; conditions: infused subcutaneously, up to 3 months
[9] = system: high-fat-diet-fed C57BL/6 mice; assay: High-fat-diet-fed C57BL/6 mice treated with AraAde; format: in vivo, mouse; set-up: insulin resistance, HOMA IR: unit not given here
brain function = assay: Bradykinesia and locomotor activity; conditions: as observed in AC5 KO
[10] = system: AC activity in the heart of dogs; assay: Forskolin-induced haemodynamic response in instrumented dog; format: in vivo; conditions: AraAde 15 mg/kg intravenously, forskolin 50 nmol/kg
Source text: An adult mongrel dog (16.5 kg, male) was surgically instrumented, for measurements of LV pressure (P), LV dP/dt, aortic pressure, ascending aortic blood flow (stroke volume) and mean aortic blood flow (cardiac output). (a) The response to intravenous infusion of Forskolin (50 nmol/kg) is shown on the phasic waveforms on the left. LV dP/dt, aortic flow (stroke volume) and mean aortic flow (cardiac output) are increased.

AC5 [11] = biological target: AC5 (UniProt P30803); assay: Inhibition of recombinant AC5 (baculovirus overexpression system); format: biochemical; set-up: IC50 for AC5; other: in the presence of Gs-α/GTPαS/forskolin; conditions: in the presence of Gs-α/GTPαS/forskolin
Source text: as §2

[12] = system: AC activity in heart membranes; assay: ISO-stimulated AC activity in heart membranes of WT and AC5KO mice; format: biochemical, mouse; conditions: 10 μM
Protocol: as §1
cAMP production in membranes from the hearts of AC5KO and WT at 6 months of age was examined. The steady state AC activity was determined as the maximal capacity of cAMP production in the presence of ISO (100 μM ISO+100 μM GTP), GTPγS (100 μM) or forskolin (100 μM). […] Basal cardiac function was not decreased, but the response to ISO and muscarinic inhibition of ISO were attenuated.

cardiac myocytes [13] = conditions: cited from earlier work
AC5 [14] = conditions: cited from earlier work
AC2 [15] = conditions: previously noted; cited from earlier work
[16] = occur in roughly half of administered patients; cited from earlier work
[17] = recombinant AC proteins, Table 1, read-out: IC50 AC5
[18] = recombinant AC proteins, Table 1, read-out: IC50 AC3

Question: With `C[C@H]1O[C@@H](n2cnc3c(N)ncnc32)C[C@@H]1O` [2′5′-dd-Ado, 2′5′ dideoxyadenosine] as the compound, how does the IC50 (AC2 [1]) read?
Answer: 2380 µM

Question: What about the “ISO induced apoptosis in cultured cardiac myocytes” value [2] of the same compound?
Answer: prevented

Question: What about the “contraction in cultured cardiac myocytes” value [2] of the same compound?
Answer: without impairing contraction

Question: And the IC50 (AC3)?
Answer: 253 µM

Question: What about the IC50 (AC5 [3]; [17]) of the same compound?
Answer: 1.6 µM

Question: What about the “Selectivity ratio for AC5, AC5/AC2” value (AC5 [4]) of the same compound?
Answer: 0.00067

Question: And the “Selectivity ratio for AC5, AC5/AC3” value (AC5 [4])?
Answer: 0.0063

Question: What about the “maximum level of suppression of ISO-induced cAMP accumulation” value (cardiac myocytes [5]) of the same compound?
Answer: around 30%

Question: Which IC50 (AC5 [3]; read-out: IC50 for AC5) does the source give for `Nc1ncnc2c1ncn2[C@H]1C[C@H](OP(=O)(O)O)[C@@H](CO)O1` [2′-d-3′-AMP] here?
Answer: 0.82 µM

Question: Which IC50 (AC5 [3]; read-out: IC50 for AC5) does the source give for `Nc1ncnc2c1ncn2[C@@H]1O[C@H](CO)[C@@H](OP(=O)(O)O)[C@H]1O` [3′-AMP] here?
Answer: 14.6 µM

Question: Which “forskolin induced cAMP production, hearts from AC5 Tg” value (AC5 [6]) does the source give for `Nc1ncnc2c1ncn2[C@@H]1O[C@H](CO)[C@@H](O)[C@@H]1O` [AraAde, 9-β-D-arabinofuranosyladenine] here?
Answer: dramatically decreased

Question: And the IC50 (AC2 [1])?
Answer: 7200 µM

Question: What about the “ISO induced apoptosis in cultured cardiac myocytes” value [2] of the same compound?
Answer: prevented

Question: What about the IC50 (AC3; [18]) of the same compound?
Answer: 375 µM

Question: What about the “forskolin induced cAMP production, hearts from AC6 Tg” value (AC6) of the same compound?
Answer: not

Question: What about the “ISO-induced cardiac fibrosis (PASR)” value ([7]; AraAde 100 μg/g/day) of the same compound?
Answer: significantly inhibited

Question: And the “ISO-induced myocardial apoptosis (TUNEL)” value ([7]; AraAde 100 μg/g/day)?
Answer: significantly inhibited

Question: What about the “chronic ISO-induced decreases in LVEF” value ([7]; AraAde 20 mg/kg/day for 1 week, echocardiography) of the same compound?
Answer: inhibited

Question: What about the “exercise performance, maximum treadmill speed” value ([7]; chronic ISO 60 mg/kg/day for 1 week, AraAde 15 mg/kg/day, n=4-6) of the same compound?
Answer: rescued exercise performance

Question: What about the IC50 (AC5 [3]; [17]) of the same compound?
Answer: 9.8 µM

Question: And the “survival rate after myocardial infarction” value (myocardial infarction)?
Answer: increased

Question: And the tolerability [8]?
Answer: well tolerated

Question: What about the “maximum level of suppression of ISO-induced cAMP accumulation” value (cardiac myocytes [5]) of the same compound?
Answer: around 30%

Question: And the plasma insulin level ([9]; 15 mg/kg/day, high-fat diet)?
Answer: unchanged; also recorded: the elevation in insulin was minimal

Question: What about the fasting blood glucose ([9]; 15 mg/kg/day, high-fat diet, vs vehicle) of the same compound?
Answer: decreased

Question: And the glucose tolerance ([9]; 94 days high fat diet, 42 days AraAde)?
Answer: improved

Question: What about the “insulin resistance, HOMA IR” value ([9]; terminal blood after 6-7 hour fast, n=2) of the same compound?
Answer: 6.38

Question: And the “bradykinesia and impaired locomotor activity” value (brain function)?
Answer: does not induce

Question: What about the “forskolin-induced LV dP/dt max” value [10] of the same compound?
Answer: attenuated

Question: And the forskolin-induced cardiac output [10]?
Answer: attenuated

Question: For `Nc1ncnc2c1ncn2C1CCCC1` [CPA, 9-(cyclopentyl) adenine], which “inhibition of AC5” value (AC5 [11]) is on record?
Answer: potently inhibited

Question: What about the “inhibition of AC2” value (AC2 [1]) of the same compound?
Answer: only to a modest degree

Question: And the “inhibition of AC3” value (AC3)?
Answer: only to a modest degree

Question: For `C[N+](C)(C)CCOC(N)=O` [Carbachol], which “inhibition of ISO-stimulated AC activity in AC5KO” value ([12]; AC5KO heart membranes) is on record?
Answer: did not inhibit

Question: What about the “decrease of ISO-stimulated AC activity in WT” value ([12]; WT heart membranes) of the same compound?
Answer: 21+/−3.4%

Question: With `Nc1ncc2c(n1)CC(c1ccco1)CC2=O` (stereo not drawn) [NKY80, 2-amino-7-(2-furanyl)-7,8-dihydro-5(6H)-quinazoline] as the compound, how does the “inhibition of cAMP accumulation in cultured cardiac myocytes” value (cardiac myocytes [13]) read?
Answer: does not inhibit

Question: And the “inhibition of purified AC5 protein in vitro” value (AC5 [14])?
Answer: moderate inhibition

Question: With `Nc1ncnc2c1ncn2C1CCC(C(=O)NO)C1` (stereo not drawn) [PMC-6] as the compound, how does the IC50 (AC2 [1]) read?
Answer: 65.3 µM

Question: What about the IC50 (AC3; [18]) of the same compound?
Answer: 11.1 µM

Question: And the IC50 (AC5 [3]; [17])?
Answer: 0.32 µM

Question: What about the “Selectivity ratio for AC5, AC5/AC2” value (AC5 [4]) of the same compound?
Answer: 0.0049

Question: And the “Selectivity ratio for AC5, AC5/AC3” value (AC5 [4])?
Answer: 0.029

Question: Which results are given for `Nc1ncnc2c1ncn2C1CCCO1` (stereo not drawn) [THFA, 9-(tetrahydro-2-furyl) adenine]?
Answer: inhibition of AC5 (AC5 [11]): potently inhibited; inhibition of AC2 (AC2 [1]): only to a modest degree; inhibition of AC3 (AC3): only to a modest degree; selectivity ratio between AC5 and AC2 (AC5 [4]): 130; selectivity ratio between AC6 and AC2 (AC2 [15]): 1.8

Question: For `Nc1nc(F)nc2c1ncn2[C@@H]1O[C@H](CO)[C@@H](O)[C@@H]1O` [fludarabine], which “adverse effects in patients” value [16] is on record?
Answer: severe adverse effects including bone marrow suppression
